For the experiment, the target named is Furin (Homo sapiens, UniProt P09958).

pKi: −log10 of the molar value. Non-standard residues stand in square brackets, D forms with d. Residues, ends and D or L forms follow the SMILES beside them. Nle = CCCC[C@H](N)C(=O)O; Ac5c = NC1(C(=O)O)CCCC1; Ahx = NCCCCCC(=O)O; βAla = NCCC(=O)O; Sar = CNCC(=O)O

Furin, sequence (P09958 whole entry): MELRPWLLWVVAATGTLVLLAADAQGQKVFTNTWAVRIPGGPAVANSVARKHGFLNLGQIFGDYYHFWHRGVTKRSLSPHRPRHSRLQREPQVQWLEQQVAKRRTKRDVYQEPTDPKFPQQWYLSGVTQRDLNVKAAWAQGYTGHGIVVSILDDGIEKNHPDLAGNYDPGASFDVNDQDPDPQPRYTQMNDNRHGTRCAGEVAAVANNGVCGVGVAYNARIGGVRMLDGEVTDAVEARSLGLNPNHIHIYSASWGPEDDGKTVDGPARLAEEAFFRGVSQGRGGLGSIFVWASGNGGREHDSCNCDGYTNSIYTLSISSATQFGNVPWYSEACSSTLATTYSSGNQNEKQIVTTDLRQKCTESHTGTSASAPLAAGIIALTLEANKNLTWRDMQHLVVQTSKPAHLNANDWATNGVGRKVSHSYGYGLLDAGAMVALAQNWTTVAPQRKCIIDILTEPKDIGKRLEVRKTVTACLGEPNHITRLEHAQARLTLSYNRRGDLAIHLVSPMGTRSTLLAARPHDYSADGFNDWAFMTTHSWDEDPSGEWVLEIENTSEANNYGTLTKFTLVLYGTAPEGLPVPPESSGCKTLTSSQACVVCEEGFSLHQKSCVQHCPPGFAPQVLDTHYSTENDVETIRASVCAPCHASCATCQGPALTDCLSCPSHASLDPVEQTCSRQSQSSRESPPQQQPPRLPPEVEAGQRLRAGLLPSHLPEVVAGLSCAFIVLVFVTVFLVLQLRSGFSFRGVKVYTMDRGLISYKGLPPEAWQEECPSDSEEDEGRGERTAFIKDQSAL

The pKi is −log10 of the Ki, conventionally taken in molar units. A lower pKi goes with a high Ki. Molecule `C[C@H](NC(=O)[C@@H]1CCCN1C(=O)[C@@H](N)[C@@H](C)O)C(=O)N[C@@H](CCC(=O)O)C(=O)N[C@@H](CCCNC(=N)N)C(=O)N[C@@H](CCCNC(=N)N)C(=O)N[C@@H](CCCNC(=N)N)C(=O)N[C@@H](CCCCN)C(=O)N[C@@H](CCCCN)C(=O)N[C@@H](CCCNC(=N)N)C(=O)N(C)CC(=O)O` (H-TPAERRRKKR[Sar]-OH) gave a negative logarithm of the Ki (pKi) below 7.00.
The value for `CSC[C@H](NC(=O)[C@H](CCCNC(=N)N)NC(=O)[C@H](CCCCN)NC(=O)[C@H](CCCCN)NC(=O)[C@H](CCCNC(=N)N)NC(=O)[C@H](CCCNC(=N)N)NC(=O)[C@H](CCCNC(=N)N)NC(=O)[C@H](C)NC(=O)[C@H](CCCNC(=N)N)NC(=O)[C@H](CCC(N)=O)NC(=O)[C@@H]1CCCN1C(=O)[C@@H](N)[C@@H](C)O)C(=O)O` (H-TPQRARRRKKRC(Me)-OH) was 7.03; that for `C[C@H](NC(=O)[C@H](CCCNC(=N)N)NC(=O)[C@H](CCC(N)=O)NC(=O)[C@@H]1CCCN1C(=O)[C@@H](N)[C@@H](C)O)C(=O)N[C@@H](CCCNC(=N)N)C(=O)N[C@@H](CCCNC(=N)N)C(=O)N[C@@H](CCCNC(=N)N)C(=O)N[C@@H](CCCCN)C(=O)N[C@@H](CCCCN)C(=O)N[C@@H](CCCNC(=N)N)C(=O)NC1(C(=O)O)CCCC1` (H-TPQRARRRKKR[Ac5c]-OH) was below 7.00.
The value for `C[C@H](NC(=O)[C@H](CCCNC(=N)N)NC(=O)[C@H](CCC(N)=O)NC(=O)[C@@H]1CCCN1C(=O)[C@@H](N)[C@@H](C)O)C(=O)N[C@@H](CCCNC(=N)N)C(=O)N[C@@H](CCCNC(=N)N)C(=O)N[C@@H](CCCNC(=N)N)C(=O)N[C@@H](CCCCN)C(=O)N[C@@H](CCCCN)C(=O)N[C@@H](CCCNC(=N)N)C(=O)NCCCCCC(=O)O` (H-TPQRARRRKKR[Ahx]-OH) was below 7.00; that for `CCCC[C@H](NC(=O)[C@H](CCCN=C(N)N)NC(=O)[C@H](CCCCN)NC(=O)[C@H](CCCCN)NC(=O)[C@H](CCCN=C(N)N)NC(=O)[C@H](CCCN=C(N)N)NC(=O)[C@H](CCCN=C(N)N)NC(=O)[C@H](C)NC(=O)[C@H](CCCN=C(N)N)NC(=O)[C@H](CCC(N)=O)NC(=O)[C@@H]1CCCN1C(=O)[C@@H](N)[C@@H](C)O)C(=O)O` (H-TPQRARRRKKR[Nle]-OH) was below 7.00; that for `C[C@H](NC(=O)[C@H](CCCN=C(N)N)NC(=O)[C@H](CCC(N)=O)NC(=O)[C@@H]1CCCN1C(=O)[C@@H](N)[C@@H](C)O)C(=O)N[C@@H](CCCN=C(N)N)C(=O)N[C@@H](CCCN=C(N)N)C(=O)N[C@@H](CCCN=C(N)N)C(=O)N[C@@H](CCCCN)C(=O)N[C@@H](CCCCN)C(=O)N[C@@H](CCCN=C(N)N)C(=O)NCCC(=O)O` (H-TPQRARRRKKR[βAla]-OH) was below 7.00.
`C[C@H](NC(=O)[C@H](C)NC(=O)[C@H](CCCNC(=N)N)NC(=O)[C@@H]1CCCN1C(=O)[C@@H](N)[C@@H](C)O)C(=O)N[C@@H](CCCNC(=N)N)C(=O)N[C@@H](CCCNC(=N)N)C(=O)N[C@@H](CCCCN)C(=O)N[C@@H](CCCCN)C(=O)N[C@@H](CCCNC(=N)N)C(=O)N(C)CC(=O)O` (H-TPRAARRKKR[Sar]-OH) had a pKi below 7.00.
The value for `C[C@H](NC(=O)[C@H](C)NC(=O)[C@H](CCC(=O)O)NC(=O)[C@H](CCCNC(=N)N)NC(=O)[C@@H]1CCCN1C(=O)[C@@H](N)[C@@H](C)O)C(=O)N[C@@H](C)C(=O)N[C@@H](CCCCN)C(=O)N[C@@H](CCCCN)C(=O)N[C@@H](CCCNC(=N)N)C(=O)N(C)CC(=O)O` (H-TPREAAAKKR[Sar]-OH) was below 7.00.
The value for `C[C@H](NC(=O)[C@H](C)NC(=O)[C@H](CCC(=O)O)NC(=O)[C@H](CCCN=C(N)N)NC(=O)[C@@H]1CCCN1C(=O)[C@@H](N)[C@@H](C)O)C(=O)N[C@@H](CCCN=C(N)N)C(=O)N[C@@H](CCCCN)C(=O)N[C@@H](CCCCN)C(=O)N[C@@H](CCCN=C(N)N)C(=O)N(C)CC(=O)O` (H-TPREAARKKR[Sar]-OH) was below 7.00; that for `C[C@H](NC(=O)[C@H](CCC(=O)O)NC(=O)[C@H](CCCNC(=N)N)NC(=O)[C@@H]1CCCN1C(=O)[C@@H](N)[C@@H](C)O)C(=O)N[C@@H](CCCNC(=N)N)C(=O)N[C@@H](CCCNC(=N)N)C(=O)N[C@@H](CCCCN)C(=O)N[C@@H](CCCCN)C(=O)N[C@@H](CCCNC(=N)N)C(=O)N(C)CC(=O)O` (H-TPREARRKKR[Sar]-OH) was below 7.00; that for `C[C@H](NC(=O)[C@H](C)NC(=O)[C@H](CCCNC(=N)N)NC(=O)[C@H](CCC(=O)O)NC(=O)[C@H](CCCNC(=N)N)NC(=O)[C@@H]1CCCN1C(=O)[C@@H](N)[C@@H](C)O)C(=O)N[C@@H](CCCCN)C(=O)N[C@@H](CCCCN)C(=O)N[C@@H](CCCNC(=N)N)C(=O)N(C)CC(=O)O` (H-TPRERAAKKR[Sar]-OH) was below 7.00.
The value for `C[C@H](NC(=O)[C@H](CCCNC(=N)N)NC(=O)[C@H](CCC(=O)O)NC(=O)[C@H](CCCNC(=N)N)NC(=O)[C@@H]1CCCN1C(=O)[C@@H](N)[C@@H](C)O)C(=O)N[C@@H](CCCNC(=N)N)C(=O)N[C@@H](CCCCN)C(=O)N[C@@H](CCCCN)C(=O)N[C@@H](CCCNC(=N)N)C(=O)N(C)CC(=O)O` (H-TPRERARKKR[Sar]-OH) was below 7.00.
Take `C[C@H](NC(=O)[C@H](C)NC(=O)[C@H](CCCNC(=N)N)NC(=O)[C@H](CCCNC(=N)N)NC(=O)[C@H](CCC(=O)O)NC(=O)[C@H](CCCNC(=N)N)NC(=O)[C@@H]1CCCN1C(=O)[C@@H](N)[C@@H](C)O)C(=O)N[C@@H](CCCCN)C(=O)N[C@@H](CCCNC(=N)N)C(=O)N(C)CC(=O)O` (H-TPRERRAAKR[Sar]-OH): the pKi is below 7.00.
Turning to `C[C@H](NC(=O)[C@H](CCCNC(=N)N)NC(=O)[C@H](CCCNC(=N)N)NC(=O)[C@H](CCC(=O)O)NC(=O)[C@H](CCCNC(=N)N)NC(=O)[C@@H]1CCCN1C(=O)[C@@H](N)[C@@H](C)O)C(=O)N[C@@H](CCCCN)C(=O)N[C@@H](CCCCN)C(=O)N[C@@H](CCCNC(=N)N)C(=O)N(C)CC(=O)O` (H-TPRERRAKKR[Sar]-OH), the negative-log Ki (pKi) is below 7.00.
Molecule `C[C@H](NC(=O)[C@H](CCCNC(=N)N)NC(=O)[C@H](CCCNC(=N)N)NC(=O)[C@H](CCCNC(=N)N)NC(=O)[C@H](CCC(=O)O)NC(=O)[C@H](CCCNC(=N)N)NC(=O)[C@@H]1CCCN1C(=O)[C@@H](N)[C@@H](C)O)C(=O)N[C@@H](CCCCN)C(=O)N[C@@H](CCCNC(=N)N)C(=O)N(C)CC(=O)O` (H-TPRERRRAKR[Sar]-OH) gave a pKi below 7.00.
With `C[C@H](NC(=O)[C@H](CCCCN)NC(=O)[C@H](CCCNC(=N)N)NC(=O)[C@H](CCCNC(=N)N)NC(=O)[C@H](CCCNC(=N)N)NC(=O)[C@H](CCC(=O)O)NC(=O)[C@H](CCCNC(=N)N)NC(=O)[C@@H]1CCCN1C(=O)[C@@H](N)[C@@H](C)O)C(=O)N[C@@H](C)C(=O)N(C)CC(=O)O` (H-TPRERRRKAA[Sar]-OH), the pKi is below 7.00.
The value for `C[C@H](NC(=O)[C@H](CCCCN)NC(=O)[C@H](CCCNC(=N)N)NC(=O)[C@H](CCCNC(=N)N)NC(=O)[C@H](CCCNC(=N)N)NC(=O)[C@H](CCC(=O)O)NC(=O)[C@H](CCCNC(=N)N)NC(=O)[C@@H]1CCCN1C(=O)[C@@H](N)[C@@H](C)O)C(=O)N[C@@H](CCCNC(=N)N)C(=O)N(C)CC(=O)O` (H-TPRERRRKAR[Sar]-OH) was below 7.00.
The value for `C[C@H](NC(=O)[C@H](CCCCN)NC(=O)[C@H](CCCCN)NC(=O)[C@H](CCCN=C(N)N)NC(=O)[C@H](CCCN=C(N)N)NC(=O)[C@H](CCCN=C(N)N)NC(=O)[C@H](CCC(=O)O)NC(=O)[C@H](CCCN=C(N)N)NC(=O)[C@@H]1CCCN1C(=O)[C@@H](N)[C@@H](C)O)C(=O)N(C)CC(=O)O` (H-TPRERRRKKA[Sar]-OH) was below 7.00.
The value for `C[C@@H](O)[C@H](N)C(=O)N1CCC[C@H]1C(=O)N[C@@H](CCCNC(=N)N)C(=O)N[C@@H](CCC(=O)O)C(=O)N[C@@H](CCCNC(=N)N)C(=O)N[C@@H](CCCNC(=N)N)C(=O)N[C@@H](CCCNC(=N)N)C(=O)N[C@@H](CCCCN)C(=O)N[C@@H](CCCCN)C(=O)N[C@@H](CCCNC(=N)N)C(=O)N(C)CC(=O)O` (H-TPRERRRKKR[Sar]-OH) was below 7.00; that for H-AAAERRRKKR-OH was below 7.00.
Molecule H-AAAERRRKKRG-OH gave a pKi below 7.00.
H-AAAERRRKKRV-OH showed a pKi below 7.00.
H-AARERRRKKR-OH showed a pKi below 7.00.
The value for H-AARERRRKKRG-OH was below 7.00.
The value for H-AARERRRKKRV-OH was below 7.00; that for H-APRERRRKKR-OH was below 7.00.
The value for H-APRERRRKKRG-OH was below 7.00; that for H-APRERRRKKRV-OH was below 7.00; that for H-GAGAGATPQRARRRKKRW-OH was 6.90.
Consider H-GAGAGATPRARRRKKRF-OH, for which the pKi is 7.25.
H-GAGAGATPRARRRKKRT-OH gave a pKi of 7.33.
The value for H-GAGAGATPRARRRKKRY-OH was 7.24.
Take H-GGGGGGTPQRARRRKKRW-OH: the pKi was 7.06.
The value for H-GGGGGGTPRARRRKKRF-OH was 7.35.
As to H-GGGGGGTPRARRRKKRT-OH, the negative-log Ki (pKi) was 7.18.
The value for H-GGGGGGTPRARRRKKRY-OH was 7.27.
H-GGGTPQRARRRKKRW-OH showed a pKi of 7.17.
The value for H-GGGTPRARRRKKRF-OH was 7.17; that for H-GGGTPRARRRKKRT-OH was 7.41.
The value for H-GGGTPRARRRKKRY-OH was 7.38; that for H-TAAERRRKKR-OH was below 7.00; that for H-TAAERRRKKRG-OH was below 7.00.
Take H-TAAERRRKKRV-OH: the negative logarithm of the Ki (pKi) is below 7.00.
With H-TARERRRKKR-OH, the pKi was below 7.00.
The value for H-TARERRRKKRG-NH2 was below 7.00; that for H-TARERRRKKRG-OH was below 7.00; that for H-TARERRRKKRV-OH was below 7.00.
Regarding H-TPAAARRKKR-OH, the pKi was below 7.00.
On to H-TPAAARRKKRG-OH, for which the pKi is below 7.00.
H-TPAAARRKKRV-OH showed a pKi below 7.00.
The value for H-TPAARRRKKR-OH was below 7.00.
For H-TPAARRRKKRG-OH, the pKi is below 7.00.
The value for H-TPAARRRKKRV-OH was below 7.00; that for H-TPAERRRKKR-OH was below 7.00; that for H-TPAERRRKKRG-NH2 was below 7.00.
The value for H-TPAERRRKKRG-OH was below 7.00.
With H-TPAERRRKKRV-OH, the pKi is below 7.00.
In turn, H-TPQRARRRKKRA-OH had a pKi of 6.94.
The value for H-TPQRARRRKKRC-OH was below 7.00.

The values above are taken from ChEMBL document CHEMBL1156471, “Targeting host cell furin proprotein convertases as a therapeutic strategy against bacterial toxins and viral pathogens” (J Biol Chem, 2007).
